A short description of experiment [1]: Inhibition of human serum C1s-mediated lysis of rabbit Ab-sensitized sheep erythrocytes after 60 mins.
A short description of experiment [2]: Inhibition of C9 binding to C5b678 in […] activated human serum assessed as suppression of human erythrocyte lysis after 1 hr by ELISA. On the technique in general: ELISA stands for enzyme-linked immunosorbent assay.
The nature of experiment [3]: Inhibition of factor D in […]-activated human serum assessed as decrease in human erythrocyte lysis.
The nature of experiment [4]: Inhibition of factor D in […]-activated rat serum assessed as decrease in human erythrocyte lysis.
Experiment [5] is described as follows: Inhibition of human serum C2-mediated lysis of antibody-sensitized sheep red blood cells after 30 mins by UV-Vis spectrophotometric method.

This note sets out measurements from BindingDB's records for doi:10.1021/acs.jmedchem.7b00882 (The University of Queensland, 2018).

SMILES strings stand for the structures. Peptide text beside a SMILES is read from it.

As a reminder, the IC50 is the concentration at which inhibition is half-maximal.

As to `N=C(N)c1cc2ccc(OC(=O)c3cccs3)cc2s1`, in experiment [1], the IC50 was found to be 46 nM.

Turning to `O=C(O)C1=CC(=C(c2ccc(O)c(C(=O)O)c2)c2ccc(O)c(C(=O)O)c2)C=CC1=O` [MLS002153482], the IC50 in experiment [2] came out at 500 nM.

Turning to `O=C(O)C1=C/C(=C\c2cc(C(c3ccc(O)c(C(=O)O)c3)c3ccc(O)c(C(=O)O)c3)cc(C(=O)O)c2O)C=CC1=O`, in experiment [2], the IC50 was 500 nM.

In the case of `CC(=O)Oc1ccc(Cc2ccc(OC(C)=O)c(C(=O)O)c2)cc1C(=O)O`, the IC50 in experiment [3] and in experiment [4] was 100 nM in each case.

Consider `CC(=O)Oc1ccc(-c2ccc(OC(C)=O)c(C(=O)O)c2)cc1C(=O)O`, for which the IC50 in experiment [3] and in experiment [4] was 100 nM in each case.

Turning to `O=C(O)C1=C/C(=C(/c2ccc(O)c(C(=O)O)c2)c2cc(Cc3cc(C(c4ccc(O)c(C(=O)O)c4)c4ccc(O)c(C(=O)O)c4)cc(C(=O)O)c3O)cc(C(=O)O)c2O)C=CC1=O`, the IC50 in experiment [2] came to 500 nM.

As for `CC(=O)N[C@@H](CCCNC(=N)N)C(=O)N[C@@H](CC(C)C)C(=O)N[C@@H](CC(C)C)C(=O)N[C@@H](CC(C)C)C(=O)N[C@@H](C)C(=O)N[C@H](C=O)CCCNC(=N)N` (Ac-RLLLAR-aldehyde), the IC50 in experiment [5] is 28000 nM.
